Measured values as given in patent EP1181269B1, “CELL PROLIFERATION INHIBITORS” (ABBOTT LABORATORIES, priority 1999, dated 2000).

Experiments:
[1] = test system: human lung large cell carcinoma, MDR negative (NCI-H460) cells; assay: 48-hour cellular proliferation assay (sulforhodamine staining, 96-well microtitre format); assay type: cell-based; details: 10^-4M compound, 48 hours in culture, 0% = DMSO control, 100% = trichloroacetic acid-treated well; for inhibition at 100 µM: Homo sapiens, read-out: NCI-460 % inhibition at 10^-4M
Procedure: (§1) Compounds of this invention were tested in a 48-hour cellular proliferation assay which uses human colon adenocarcinoma, MDR positive (HCT-15) cells, and human lung large cell carcinoma, MDR negative (NCI-H460) cells, in the 96-well microtitre format described in Skehan P., et al. New Colorimetric Cytotoxicity Assay for Anticancer Drug Screening. 1990, J. Natl. Cancer Inst. 82:1107-1112. Briefly, the wells of a microtitre plate were charged sequentially with cultured cells and compounds of the invention (1.0 x 10^-4 to 1.0 x 10^-11 M in 10% DMSO prepared by dissolving compounds of the invention in DMSO and adding 11 µL of the DMSO solution to 100 µL of culture medium for a final DMSO concentration of 10%). Two of the following controls were also present in each microtitre plate: a solvent (DMSO) control without drug that yielded a 0% inhibition level and a trichloroacetic acid-treated well that yielded a 100% inhibition level. The cells were grown in culture (37 °C, 5% CO2 atmosphere) for 48 hours then fixed by the addition of trichloroacetic acid. The wells were stained with sulforhodamine, washed with 1% acetic acid, and treated with 0.01 M tris buffer (100 µL) to solubilize the adherent dye. The absorbance of the dye solution was measured with a Molecular Devices SpechaMax340 plate reader. The percent inhibition values were obtained by calculating the proportional response of the experimental values to the absorbance values of the controls.

[2] = test system: human colon adenocarcinoma, MDR positive (HCT-15) cells; assay: as above; assay type: cell-based; details: 48 hours in culture, 0% = DMSO control, 100% = trichloroacetic acid-treated well; for inhibition at 100 µM: Homo sapiens, HCT-15, 10^-4M compound
Procedure: as §1

Structure (SMILES)	inhibition at 100 µM [1] [%]	inhibition at 100 µM [2] [%]	NCI-460 % inhibition at 10^-4M [1] [%]	HCT-15 % inhibition at 10^-4M ([2]; 10^-4M compound) [%]
COc1ccc(S(=O)(=O)Nc2cc(OC)c(OC)c(OC)c2)cc1 [Example 1, 4-methoxy-N-(3,4,5-trimethoxyphenyl)benzenesulfonamide]	98.5	99.4	–	–
COc1cc(NS(=O)(=O)c2ccc3c(c2)CCN3C=O)cc(OC)c1OC [Example 2, 1-formyl-N-(3,4,5-trimethoxyphenyl)indoline-5-sulfonamide]	74	79.9	–	–
COc1cc(NS(=O)(=O)c2ccc3c(c2)CCN3)cc(OC)c1OC [Example 3, N-(3,4,5-trimethoxyphenyl)indoline-5-sulfonamide]	59.3	86.2	–	–
COc1cc(NS(=O)(=O)c2c[nH]c3ccc([N+](=O)[O-])cc23)cc(OC)c1OC [Example 4, 5-nitro-N-(3,4,5-trimethoxyphenyl)-1H-indole-3-sulfonamide]	41.7	15.9	–	–
COc1cc(NS(=O)(=O)c2ccc3c(c2)CCN3C)cc(OC)c1OC [Example 5, 1-methyl-N-(3,4,5-trimethoxyphenyl)indoline-5-sulfonamide]	96.1	97.6	–	–
COc1cc(NS(=O)(=O)c2cn(C)c3ccc([N+](=O)[O-])cc23)cc(OC)c1OC [Example 6, 1-methyl-5-nitro-N-(3,4,5-trimethoxyphenyl)-1H-indole-3-sulfonamide]	45.5	50.6	–	–
COc1cc(NS(=O)(=O)c2cn(C)c3ccc(N)cc23)cc(OC)c1OC [Example 7, 5-amino-1-methyl-N-(3,4,5-trimethoxyphenyl)-1H-indole-3-sulfonamide]	87	91.9	–	–
COc1cc(NS(=O)(=O)c2c[nH]c3ccc(N)cc23)cc(OC)c1OC [Example 8, 5-amino-N-(3,4,5-trimethoxyphenyl)-1H-indole-3-sulfonamide]	< 9.1	37	–	–
COc1cc(NS(=O)(=O)c2ccc3[nH]ccc3c2)cc(OC)c1OC [Example 9, N-(3,4,5-trimethoxyphenyl)-1H-indole-5-sulfonamide]	89.1	94.1	–	–
COc1cc(NS(=O)(=O)c2ccc3c(ccn3C)c2)cc(OC)c1OC [Example 10, 1-methyl-N-(3,4,5-trimethoxyphenyl)-1H-indole-5-sulfonamide]	100	100	–	–
COc1cc(N(C)S(=O)(=O)c2ccc3c(ccn3C)c2)cc(OC)c1OC [Example 11, N,1-dimethyl-N-(3,4,5-trimethoxyphenyl)-1H-indole-5-sulfonamide]	99.9	100	–	–
COc1cc(S(=O)(=O)Oc2ccc3[nH]ccc3c2)cc(OC)c1OC [Example 15, 1H-indol-5-ol,(3,4,5-trimethoxybenzenesulfonate) ester]	–	–	100.0	100.0
COc1cc(S(=O)(=O)Oc2ccc3c(ccn3C)c2)cc(OC)c1OC [Example 16, 1-methyl-1H-indol-5-yl 3,4,5-trimethoxybenzenesulfonate]	100	100	–	–
